Literature values, collected in US10888524B2, “Immediate release tablet of dofetilide” (Enaltec Pharma Research Pvt. Ltd., priority 2018, dated 2021).

How the values were obtained:
[1] = tested on: patients with severe left ventricular dysfunction; settings: unlike class I agents
[2] = tested on: patients with atrial as well as ventricular arrhythmias

CN(CCOc1ccc(NS(C)(=O)=O)cc1)CCc1ccc(NS(C)(=O)=O)cc1 [Dofetilide, N-[4-[2-[methyl[2-[4-[(methylsulfonyl)amino]phenoxy]ethyl]amino]ethyl]phenyl]-methane sulfonamide]
Safety in patients with congestive heart failure [1]: safe | Efficacy in treating arrhythmias [2]: effective
